This note sets out measurements from US9999650B2, “Peptide and peptidomimetic inhibitors” (Ra Pharmaceuticals, Inc., priority 2012, dated 2018).

Molecules are shown by their SMILES. Numbered stars: 1 amine (or outer) side, 2 acyl side, 3 side chain; on linkers, the order of the positions; unused ones are H or OH. Bridge positions count the residues as written; N and C are the ends. Square brackets hold non-standard residues; d marks the D form. Peptide text beside a SMILES is read from it. Trp(7-aza) = N[C@@H](Cc1c[nH]c2ncccc12)C(=O)O; mXylylene = c1cc(C[*:1])cc(C[*:2])c1; Gly(cPr) = N[C@H](C(=O)O)C1CC1; dPhg = N[C@@H](C(=O)O)c1ccccc1; Chg = N[C@H](C(=O)O)C1CCCCC1; Pen = CC(C)(S)[C@H](N)C(=O)O; Phg = N[C@H](C(=O)O)c1ccccc1; Tle = CC(C)(C)[C@H](N)C(=O)O; αMeP = C[C@@]1(C(=O)O)CCCN1; Nle = CCCC[C@H](N)C(=O)O; Ac5c = NC1(C(=O)O)CCCC1; Nva = CCC[C@H](N)C(=O)O; Thp = NC1(C(=O)O)CCOCC1; Aib = CC(C)(N)C(=O)O; Mpa = O=C(O)CCS

T1 sequence (P03952 20-390 limits assumed): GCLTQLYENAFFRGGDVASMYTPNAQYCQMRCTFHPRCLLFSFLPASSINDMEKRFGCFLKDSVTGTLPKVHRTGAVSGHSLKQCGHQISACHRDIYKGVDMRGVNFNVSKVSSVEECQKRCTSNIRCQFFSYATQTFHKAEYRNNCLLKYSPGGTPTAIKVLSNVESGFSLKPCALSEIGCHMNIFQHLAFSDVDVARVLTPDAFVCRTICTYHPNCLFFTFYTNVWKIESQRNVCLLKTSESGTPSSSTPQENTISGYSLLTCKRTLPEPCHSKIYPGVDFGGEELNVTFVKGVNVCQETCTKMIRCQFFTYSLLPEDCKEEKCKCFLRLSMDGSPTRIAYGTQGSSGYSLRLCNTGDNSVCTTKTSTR
T1 sequence (P03952 391-638 limits assumed): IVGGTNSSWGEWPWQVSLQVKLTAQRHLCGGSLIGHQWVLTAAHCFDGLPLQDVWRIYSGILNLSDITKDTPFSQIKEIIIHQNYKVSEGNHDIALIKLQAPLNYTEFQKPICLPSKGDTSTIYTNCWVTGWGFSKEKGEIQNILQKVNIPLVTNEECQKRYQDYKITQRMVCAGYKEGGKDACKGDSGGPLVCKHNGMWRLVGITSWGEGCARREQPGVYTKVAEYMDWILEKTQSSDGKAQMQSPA

The assay addresses T1, human plasma kallikrein (Homo sapiens, UniProt P03952).
T1 construct: purchased Enzyme Research Laboratories HPKa 1303
Briefly: Enzyme inhibition assay (fluorogenic substrate H-Pro-Phe-Arg-AMC). In kind it is biochemical. The settings on record: Kallikrein inhibitory activity; 1 nM activated human kallikrein, 500 μM H-Pro-Phe-Arg-AMC, 1 hour room temperature; read-out: Avg. IC50. The protocol: Activated human plasma kallikrein (Enzyme Research Laboratories, HPKa 1303) was reacted with H-Pro-Phe-Arg-7-amido-4-methylcoumarin (H-Pro-Pre-Arg-AMC) (a fluorogenic substrate for plasma as well as pancreatic and urinary kallikreins; Bachem I-1295) and candidate inhibitory peptides to determine the IC50 of the inhibitor.
Ten 8-fold serial dilutions of peptides (10 mM DMSO stocks) were performed in DMSO and then added to TCNB (50 mM Tris-HCl pH 7.2, 150 mM NaCl, 10 mM CaCl2, 0.05% Brij-35) and sonicated. 50 μL of the peptide dilutions were added to microtitre plates (96 well, black non-binding surface, Corning, 3650) and incubated for 5 minutes at room temperature with 4 nM activated human kallikrein (final concentration after addition of fluorogenic substrate: 1 nM). The samples were then incubated for 1 hour at room temperature with 2 mM H-Pro-Phe-Arg-AMC (final concentration 500 μM). Relative Fluorescence Units (RFU) were measured at excitation/emission 360 nm/460 nm by a SpectraMax M3.
For `CCC[C@H](N)C(=O)N[C@@H]1C(=O)N[C@@H](CCC(=O)O)C(=O)N[C@@H](CO)C(=O)N[C@@H]([C@@H](C)CC)C(=O)N[C@H](C(=O)N[C@@H](CCCNC(=N)N)C(=O)N[C@H](C(N)=O)C(C)C)C(C)(C)SCc2cccc(c2)CSC1(C)C` [Compound R2034, [mXylyl(2,6)]Nvl-Pen-ESI-Pen-RV-NH2] (H-[Nva][Pen]ESI[Pen]RV-NH2; linker 2-6 via mXylylene), the IC50 was above 100000 nM.

On to `CC[C@H](C)[C@@H]1NC(=O)[C@H](CO)NC(=O)[C@H](CCC(=O)O)NC(=O)[C@@H](NC(C)=O)CSCc2cccc(c2)CSC[C@@H](C(=O)N[C@@H](CCCNC(=N)N)C(=O)N[C@H](C(=O)N[C@@H](CC(C)C)C(=O)N[C@@H](CCCNC(=N)N)C(=O)N[C@@H](Cc2ccc(O)cc2)C(=O)N[C@@H](CO)C(N)=O)C(C)C)NC1=O` [Compound R2056, [mXylyl(1,5)]Ac-CESICRVLRYS-NH2] (Ac-CESICRVLRYS-NH2; linker 1-5 via mXylylene), for which the IC50 was determined as 1.9 nM.

Take `CCCC[C@@H]1NC(=O)[C@@H](NC(C)=O)CSCc2cccc(c2)CSC[C@@H](C(=O)N[C@@H](CCCNC(=N)N)C(=O)N[C@H](C(N)=O)C(C)(C)C)NC(=O)[C@H](c2ccccc2)NC(=O)[C@H](CO)NC1=O` [Compound R2065, [mXylyl(1,5)]Ac-C-Nle-S-Phg-CR-Tbg-NH2] (Ac-C[Nle]S[Phg]CR[Tle]-NH2; linker 1-5 via mXylylene): the IC50 was determined as 6.1 nM.

`CC(=O)N[C@H]1CSCc2cccc(c2)CSC[C@@H](C(=O)N[C@@H](CCCNC(=N)N)C(=O)N[C@H](C(N)=O)C2CC2)NC(=O)[C@H](c2ccccc2)NC(=O)[C@H](CO)NC(=O)[C@@H](C)NC1=O` [Compound R2070, [mXylyl(1,5)]Ac-C-a-S-Phg-CR-Cppg-NH2] (Ac-C[dA]S[Phg]CR[Gly(cPr)]-NH2; linker 1-5 via mXylylene): the IC50 was 118 nM.

`CC[C@H](C)[C@@H]1NC(=O)[C@H](C)NC(=O)[C@H](C)NC(=O)CCSCc2cccc(c2)CSC[C@@H](C(=O)N[C@@H](CCCNC(=N)N)C(=O)N[C@H](C(N)=O)C(C)C)NC1=O` [Compound R2072, [mXylyl(1,5)](des-NH2)C-AAICRV-NH2] ([Mpa]AAICRV-NH2; linker 1-5 via mXylylene): the IC50 amounted to 13 nM.

For the compound `CC[C@H](C)[C@@H]1NC(=O)[C@H](CO)NC(=O)[C@H](CCC(=O)O)NC(=O)[C@@H](NC(=O)[C@@H](N)CCSC)CSCc2cccc(c2)CSC[C@@H](C(=O)N[C@@H](CCCNC(=N)N)C(=O)N[C@@H](CCC(=O)O)C(N)=O)NC1=O` [Compound R2087, [mXylyl(2,6)]MCESICRE-NH2] (H-MCESICRE-NH2; linker 2-6 via mXylylene), the IC50 was above 16600 nM.

As for `C[C@@H]1NC(=O)C(C)(C)NC(=O)CCSCc2cccc(c2)CSC[C@@H](C(=O)N[C@@H](CCCNC(=N)N)C(=O)N[C@H](C(N)=O)C(C)(C)C)NC(=O)[C@H](C2CCCCC2)NC1=O` [Compound R2091, [mXylyl(1,5)](des-NH2)C-Aib-A-Chg-CR-Tbg-NH2] ([Mpa][Aib]A[Chg]CR[Tle]-NH2; linker 1-5 via mXylylene), the IC50 was found to be 3.2 nM.

`CSCC[C@H](N)C(=O)N[C@@H](CS)C(=O)N[C@@H](CC(N)=O)C(=O)N[C@@H](Cc1ccc(O)cc1)C(=O)N[C@@H](Cc1c[nH]c2ccccc12)C(=O)N[C@@H](CO)C(=O)N1CCC[C@H]1C(=O)N[C@@H](Cc1c[nH]c2ccccc12)C(=O)N[C@H](C(=O)N[C@@H](CCC(=O)O)C(=O)N[C@@H](CS)C(=O)N[C@@H](CO)C(N)=O)[C@@H](C)O` [Compound R2110, MCNYWSPWTECS-NH2] (H-MCNYWSPWTECS-NH2; N-terminus assumed): the half-maximal inhibitory concentration (IC50) is 3.5 nM.

As to `CC(=O)N[C@@H](CS)C(=O)N[C@@H](CC(N)=O)C(=O)N[C@@H](Cc1ccc(O)cc1)C(=O)N[C@@H](Cc1c[nH]c2ccccc12)C(=O)N[C@@H](CO)C(=O)N1CCC[C@H]1C(=O)N[C@@H](Cc1c[nH]c2ccccc12)C(=O)N[C@H](C(=O)N[C@@H](CCC(=O)O)C(=O)N[C@@H](CS)C(=O)N[C@@H](CO)C(=O)N[C@@H](C)C(N)=O)[C@@H](C)O` [Compound R2116, Ac-CNYWSPWTECSA-NH2] (Ac-CNYWSPWTECSA-NH2), the IC50 worked out at 3.5 nM.

With `CC(=O)N[C@@H](CS)C(=O)N[C@@H](CC(N)=O)C(=O)N[C@@H](Cc1ccc(O)cc1)C(=O)N[C@@H](Cc1c[nH]c2ccccc12)C(=O)N[C@@H](C)C(=O)N1CCC[C@H]1C(=O)N[C@@H](Cc1c[nH]c2ccccc12)C(=O)N[C@H](C(=O)N[C@@H](CCC(=O)O)C(=O)N[C@@H](CS)C(N)=O)[C@@H](C)O` [Compound R2131, Ac-CNYWAPWTEC-NH2] (Ac-CNYWAPWTEC-NH2), the IC50 is 127 nM.

For `CC(=O)N[C@H]1CSCc2cccc(c2)CSC[C@@H](C(N)=O)NC(=O)[C@H](C)NC(=O)[C@H]([C@@H](C)O)NC(=O)[C@H](Cc2c[nH]c3ccccc23)NC(=O)[C@@H]2CCCN2C(=O)[C@H](CO)NC(=O)[C@H](Cc2c[nH]c3ccccc23)NC(=O)[C@H](Cc2ccc(O)cc2)NC(=O)[C@H](CC(N)=O)NC1=O` [Compound R2136, [mXylyl(1,10)]Ac-CNYWSPWTAC-NH2] (Ac-CNYWSPWTAC-NH2; linker 1-10 via mXylylene), the IC50 stood at 6.1 nM.

Regarding `CC(=O)N[C@H]1CSSC[C@@H](C(N)=O)NC(=O)[C@H](C)NC(=O)[C@H]([C@@H](C)O)NC(=O)[C@H](Cc2c[nH]c3ccccc23)NC(=O)[C@@H]2CCCN2C(=O)[C@H](CO)NC(=O)[C@H](Cc2c[nH]c3ccccc23)NC(=O)[C@H](Cc2ccc(O)cc2)NC(=O)[C@H](CC(N)=O)NC1=O` [Compound R2142, [cyclo(1,10)]Ac-CNYWSPWTAC-NH2] (Ac-CNYWSPWTAC-NH2; disulfide 1-10), the IC50 was found to be 2.7 nM.

As to `C[C@@H]1NC(=O)C2(CCOCC2)NC(=O)CCSCc2cccc(c2)CSC[C@@H](C(=O)N[C@@H](Cc2c[nH]c3ncccc23)C(=O)N[C@H](C(N)=O)C(C)(C)C)NC(=O)[C@H](C2CCCCC2)NC1=O` [Compound R2147, [mXylyl(1,5)](des-NH2)C-AcPyr-A-Chg-C-AzaTrp-Tbg-NH2] ([Mpa][Thp]A[Chg]C[Trp(7-aza)][Tle]-NH2; linker 1-5 via mXylylene), the half-maximal inhibitory concentration (IC50) was above 2190 nM.

With `C[C@@H]1NC(=O)C(C)(C)NC(=O)CCSCc2cccc(c2)CSC[C@@H](C(=O)N[C@@H](CCCNC(=N)N)C(=O)O)NC(=O)[C@H](C2CCCCC2)NC1=O` [Compound R2153, [mXylyl(1,5)](des-NH2)C-Aib-A-Chg-CR-OH] ([Mpa][Aib]A[Chg]CR-OH; linker 1-5 via mXylylene), the IC50 is above 8880 nM.

Turning to `CC[C@H](C)[C@@H]1NC(=O)[C@H](CO)NC(=O)CSCc2cccc(c2)CSC[C@@H](C(=O)N[C@@H](CCCNC(=N)N)C(=O)N[C@H](C(N)=O)C(C)C)NC1=O` [Compound R2154, [mXylyl(1,4)](2-SAc)-SICRV-NH2], the IC50 was above 7930 nM.

With `CC(=O)N[C@H](C(=O)N[C@H]1CSCc2cccc(c2)CSC[C@@H](C(N)=O)NC(=O)[C@H](C)NC(=O)[C@H](C(C)C)NC(=O)[C@H](CCCNC(=N)N)NC1=O)C1CCCCC1` [Compound R2159, [mXylyl(2,6)]Ac-Chg-CR-V-AC-NH2] (Ac-[Chg]CRVAC-NH2; linker 2-6 via mXylylene), the IC50 was above 20100 nM.

For `CC(=O)N[C@H](C(=O)N[C@H]1CSCc2cccc(c2)CSC[C@@H](C(N)=O)NC(=O)[C@@H]2CCCN2C(=O)[C@H](C(C)C)NC(=O)[C@H](CCCNC(=N)N)NC1=O)C1CCCCC1` [Compound R2160, [mXylyl(2,6)]Ac-Chg-CR-V-PC-NH2] (Ac-[Chg]CRVPC-NH2; linker 2-6 via mXylylene), the IC50 was above 100000 nM.

Regarding `C[C@@H]1NC(=O)C2(CCCC2)NC(=O)CCSCc2cccc(c2)CSC[C@@H](C(=O)N[C@@H](CCCNC(=N)N)C(=O)N[C@H](C(N)=O)C(C)(C)C)NC(=O)[C@H](C2CCCCC2)NC1=O` [Compound R2169, [mXylyl(1,5)](des-NH2)C-(Cyclo-L)-A-Chg-CR-Tbg-NH2] ([Mpa][Ac5c]A[Chg]CR[Tle]-NH2; linker 1-5 via mXylylene), the IC50 was found to be 1.9 nM.

Turning to `CNC(=O)[C@@H](NC(=O)[C@H](CCCNC(=N)N)NC(=O)[C@@H]1CSCc2cccc(c2)CSCCC(=O)NC2(CCCC2)C(=O)N[C@@H](C)C(=O)N[C@@H](C2CCCCC2)C(=O)N1)C(C)C` [Compound R2178, [mXylyl(1,5)](des-NH2)C-(Cyclo-L)-A-Chg-CR-V-NHCH3] ([Mpa][Ac5c]A[Chg]CRV-NHMe; linker 1-5 via mXylylene), the IC50 was found to be 3.2 nM.

As to `CC(C)(C)[C@H](NC(=O)[C@H](CCCNC(=N)N)NC(=O)[C@@H]1CSCc2cccc(c2)CSCCC(=O)N2CCC[C@@]2(C)C(=O)N[C@@H](C2CCCCC2)C(=O)N1)C(N)=O` [Compound R2180, [mXylyl(1,4)](des-NH2)C-(a-Me)P-Chg-CR-Tbg-NH2] ([Mpa][αMeP][Chg]CR[Tle]-NH2; linker 1-4 via mXylylene), the IC50 is 6.8 nM.

`CC(C)[C@H](NC(=O)[C@H](CCCNC(=N)N)NC(=O)[C@@H]1CSCc2cccc(c2)CSCCC(=O)N2CCC[C@H]2C(=O)N[C@@H](C2CCCCC2)C(=O)N1)C(=O)O` [Compound R2183, [mXylyl(1,4)](des-NH2)C-P-Chg-CR-V-OH] ([Mpa]P[Chg]CRV-OH; linker 1-4 via mXylylene): the IC50 was above 3500 nM.

On to `CC(C)(C)[C@H](NC(=O)[C@H](CCCNC(=N)N)NC(=O)[C@@H]1CSCc2cccc(c2)CSCCC(=O)N2CCC[C@H]2C(=O)N[C@H](c2ccccc2)C(=O)N1)C(N)=O` [Compound R2187, [mXylyl(1,4)](des-NH2)C-P-(D)Phg-CR-Tbg-NH2] ([Mpa]P[dPhg]CR[Tle]-NH2; linker 1-4 via mXylylene), for which the IC50 is above 4700 nM.

One may read the IC50 as the midpoint of a concentration-inhibition curve.
